Experimental data as given in ChEMBL document CHEMBL1201862, “PubChem BioAssay data set” (2004).
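Tested at 5 concentrations; 48 h exposure; 96-well plates; endpoints linearly interpolated, else capped at highest concentration. Abbreviation: GI50, concentration required for 50% inhibition of growth.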 Calls of active or inactive are those of the source. No stated cut-off is given here; in the data, active = GI50 up to about 1.1 µM and inactive = higher. Where a SMILES comes first, the peptide text is derived from it. The star is where a group is joined. Boc = CC(C)(C)OC(=O)*; OBn = c1ccc(CO*)cc1

Key:
Experiment in all cases: NCI anticancer screen, dose series, 48 h
[1] = test system: NCI-H460
[2] = test system: MDA-MB-435
[3] = test system: 786-0
[4] = test system: NCI-H226
[5] = test system: SK-MEL-2
[6] = test system: OVCAR-5
[7] = test system: HOP-62
[8] = test system: SNB-19
[9] = test system: COLO 205
[10] = test system: HL-60
[11] = test system: CCRF-CEM
[12] = test system: ACHN
[13] = test system: MCF7
[14] = test system: MDA-N
[15] = test system: RPMI-8226
[16] = test system: SF-539
[17] = test system: A549
[18] = test system: SF-295
[19] = test system: OVCAR-3
[20] = test system: RXF 393
[21] = test system: OVCAR-4
[22] = test system: HT-29
[23] = test system: NCI/ADR-RES
[24] = test system: NCI-H23
[25] = test system: HCT-15
[26] = test system: NCI-H522
[27] = test system: PC-3
[28] = test system: DU-145
[29] = test system: EKVX
[30] = test system: SW-620
[31] = test system: Hs-578T
[32] = test system: U-251
[33] = test system: UACC-62
[34] = test system: SK-MEL-28
[35] = test system: SN12C
[36] = test system: SR
[37] = test system: K562
[38] = test system: SF-268
[39] = test system: SK-OV-3
[40] = test system: UO-31
[41] = test system: HCT-116
[42] = test system: MDA-MB-231
[43] = test system: M14
[44] = test system: KM12
[45] = test system: HCC 2998
[46] = test system: CAKI-1
[47] = test system: IGROV-1
[48] = test system: Malme-3M
[49] = test system: T47D
[50] = test system: SNB-75
[51] = test system: TK-10
[52] = test system: MOLT-4
[53] = test system: SK-MEL-5
[54] = test system: UACC-257
[55] = test system: OVCAR-8
[56] = test system: LOX IMVI
[57] = test system: A498
[58] = test system: HOP-92

With `COc1cc([N+](=O)[O-])c(S(=O)(=O)[O-])cc1-[n+]1nc(C(=O)Nc2ccccc2)nn1-c1ccc([N+](=O)[O-])c(S(=O)(=O)O)c1` the GI50 [1] was > 100 µM (inactive), the GI50 [2] was > 100 µM (inactive) and the GI50 [3] was > 100 µM (inactive). For the same compound, the GI50 [4] was > 100 µM (inactive), the GI50 [5] was > 100 µM (inactive) and the GI50 [6] was > 100 µM (inactive). For the same compound, the GI50 [7] was > 100 µM (inactive), the GI50 [8] was > 100 µM (inactive) and the GI50 [9] was > 100 µM (inactive). The GI50 [10] was 84.7 µM (inactive), the GI50 [11] was > 100 µM (inactive) and the GI50 [12] was > 100 µM (inactive). For the same compound, the GI50 [13] was > 100 µM (inactive), the GI50 [14] was > 100 µM (inactive) and the GI50 [15] was > 100 µM (inactive). The GI50 [16] was > 100 µM (inactive), the GI50 [17] was > 100 µM (inactive) and the GI50 [18] was > 100 µM (inactive). For the same compound, the GI50 [19] was > 100 µM (inactive), the GI50 [20] was > 100 µM (inactive) and the GI50 [21] was > 100 µM (inactive). The GI50 [22] was > 100 µM (inactive), the GI50 [23] was > 100 µM (inactive) and the GI50 [24] was > 100 µM (inactive). For the same compound, the GI50 [25] was greater than 100 µM, the GI50 [26] was > 100 µM (inactive) and the GI50 [27] was > 100 µM (inactive). The GI50 [28] was > 100 µM (inactive), the GI50 [29] was > 100 µM (inactive) and the GI50 [30] was > 100 µM (inactive). The GI50 [31] was > 100 µM (inactive), the GI50 [32] was > 100 µM (inactive) and the GI50 [33] was > 100 µM (inactive). The GI50 [34] was > 100 µM (inactive), the GI50 [35] was > 100 µM (inactive) and the GI50 [36] was > 100 µM (inactive). The GI50 [37] was > 100 µM (inactive), the GI50 [38] was > 100 µM (inactive) and the GI50 [39] was > 100 µM (inactive). For the same compound, the GI50 [40] was > 100 µM (inactive), the GI50 [41] was > 100 µM (inactive) and the GI50 [42] was 52.2 µM (inactive). The GI50 [43] was > 100 µM (inactive), the GI50 [44] was > 100 µM (inactive) and the GI50 [45] was > 100 µM (inactive). The GI50 [46] was > 100 µM (inactive), the GI50 [47] was > 100 µM (inactive) and the GI50 [48] was > 100 µM (inactive). For the same compound, the GI50 [49] was > 100 µM (inactive), the GI50 [50] was > 100 µM (inactive) and the GI50 [51] was > 100 µM (inactive). The GI50 [52] was > 100 µM (inactive) and the GI50 [53] was > 100 µM (inactive).
`COc1ccc(Nc2nc3cc(N)cc(N)c3nc2-c2ccccc2)cc1` was tested, and the GI50 [22] was 20.3 µM (inactive) and the GI50 [54] was 14.4 µM (inactive).
With `CC(C)(C)OC(=O)NC(Cc1ccccc1)C(=O)NC(Cc1ccccc1)C(=O)NCC(=O)OCc1ccccc1` (stereo not drawn) (Boc-Phe-Phe-Gly-OBn; configuration not given here) the GI50 [55] was 30.1 µM (inactive), the GI50 [1] was 23 µM (inactive) and the GI50 [2] was 8.36 µM (inactive). For the same compound, the GI50 [3] was 17.1 µM (inactive), the GI50 [5] was 33.6 µM (inactive) and the GI50 [6] was 37.5 µM (inactive). The GI50 [7] was 31.1 µM (inactive), the GI50 [8] was 35 µM (inactive) and the GI50 [9] was 29.8 µM (inactive). The GI50 [10] was 19.7 µM (inactive), the GI50 [11] was 16.4 µM (inactive) and the GI50 [12] was 47.3 µM (inactive). The GI50 [13] was 51.5 µM (inactive), the GI50 [14] was 19.9 µM (inactive) and the GI50 [15] was 15.4 µM (inactive). The GI50 [16] was 19 µM (inactive), the GI50 [18] was > 10 µM (inactive) and the GI50 [19] was 20 µM (inactive). For the same compound, the GI50 [21] was 24.7 µM (inactive), the GI50 [22] was 16.7 µM (inactive) and the GI50 [23] was > 100 µM (inactive). For the same compound, the GI50 [56] was 7.93 µM (inactive), the GI50 [24] was 22.8 µM (inactive) and the GI50 [25] was 17.9 µM. The GI50 [26] was 6 µM (inactive), the GI50 [27] was 16.3 µM (inactive) and the GI50 [28] was 17.9 µM (inactive). For the same compound, the GI50 [29] was 45 µM (inactive), the GI50 [30] was 12.8 µM (inactive) and the GI50 [32] was 18.7 µM (inactive). For the same compound, the GI50 [33] was 16.3 µM (inactive), the GI50 [34] was 23.3 µM (inactive) and the GI50 [35] was 21.7 µM (inactive). The GI50 [36] was 18.4 µM (inactive), the GI50 [37] was 12.5 µM (inactive) and the GI50 [38] was 15.3 µM (inactive). For the same compound, the GI50 [39] was 22.8 µM (inactive), the GI50 [40] was 41 µM (inactive) and the GI50 [41] was 18.3 µM (inactive). The GI50 [42] was > 10 µM (inactive), the GI50 [43] was 20.8 µM (inactive) and the GI50 [45] was 16.3 µM (inactive). The GI50 [46] was 57.4 µM (inactive), the GI50 [47] was 13.2 µM (inactive) and the GI50 [54] was > 100 µM (inactive). For the same compound, the GI50 [57] was > 100 µM (inactive), the GI50 [48] was 44.5 µM (inactive) and the GI50 [58] was > 100 µM (inactive). The GI50 [49] was 77.6 µM (inactive), the GI50 [50] was 37.8 µM (inactive) and the GI50 [51] was 19.7 µM (inactive). For the same compound, the GI50 [52] was 22.2 µM (inactive).
